Results from patent publication US20260243775A1, “CELL LABELING AND ANNOTATION IN MICRO-ORGANOSPHERES” (Xilis, Inc., priority 2023, published 2026).

System: CRC cells co-encapsulated with fibroblasts, endothelial cells, and PBMCs in MOS
Test: Live/dead staining (Calcein AM / ethidium homodimer) of EpCAM-stained MOS after drug treatment
Assay type: cell-based
Conditions: higher dose (33.3 μM) versus 1.23 μM, treated for three days, FIG. 3A
Text: FIG. 3A includes representative images showing live MOS staining of CRC cells co-encapsulated with fibroblasts, endothelial cells, and PBMCs, stained with EpCAM and treated with vehicle or oxaliplatin for three days, followed by staining with Calcein AM (CAM) and ethidium homodimer (EtH). FIG. 3B is a graph plotting differential drug responses observed for the CRC only condition and for CRCs co-encapsulated with the non-cancer cells, measured by CTG assay.
Additional images of stained live MOS are shown in FIG. 3A, which includes representative images of live MOS containing CRC cells co-encapsulated with fibroblasts, endothelial cells, and PBMCs, where the MOS were stained with EpCAM and treated with vehicle or oxaliplatin (1.23 μM or 33.3 μM) for three days, followed by staining with Calcein AM (CAM) and ethidium homodimer (EtH). […] When MOS encapsulating only CRC cells or MOS co-encapsulating CRC cells, fibroblasts, endothelial cells, and PBMCs were treated with oxaliplatin, differential responses to the treatment were observed between the CRC-only MOS and the co-encapsulated MOS, as determined by CTG assay (FIG. 3B). However, the drug responses of the CRC-only MOS versus the CRC/non-cancer cell co-encapsulated MOS were much more similar based on live cell dye (CAM): dead cell dye (EtH) ratios from EpCAM positive (FIG. 3C).

## O=C1[O][Pt]2([NH][C@@H]3CCCC[C@H]3[NH]2)[O]C1=O [oxaliplatin]
  EtH (dead) and Calcein AM (live) staining, degree of killing: a greater degree of killing
